From patent US4334067A, “Flavan compounds and acid addition salts thereof” (Maruko Seiyaku Co., Ltd., priority 1979, dated 1982) come the findings set out here.

Counter-ions that a name gives are not always drawn.

As usually defined, the LD50 is the dose at which mortality reaches 50%. As a reminder, the % Inhibition is the drop in the measured response relative to a control, in per cent. Higher therefore signals a strong effect.

Data set [1] in a line: Acute toxicity. The following applies: mouse, in vivo, 7 days observation. As to the method: […] After observing general conditions of mice for 7 days after administration, 50% lethal dose [LD50 (mg/kg)] was determined.
Data set [2] concerns ddY male mice. Description: Anti-convulsive activity (pulse from corneal electrode). The class given is in vivo. As to conditions: 60 mg/kg intraperitoneally, 15 minutes before pulse; compared with Phenytoin 40 mg/kg. As to the method:
The test compound was administered intraperitoneally to ddY male mice (weighing 20 to 25 g, 7 mice per group), and, 15 minutes thereafter, pulse (A.C. 100 V, 200 msec.) was applied to the mice from a corneal electrode, and the duration time of tonic flexor, tonic extensor and clonic convulsion were determined.

Data set [3] concerns Wistar male rats. Description: Anti-arrhythmic activity (aconitine-induced arrhythmia). The class given is in vivo. As to conditions: 10 mg/kg, 10 minutes before aconitine; compared with Ajmaline 5 mg/kg. As for the experimental part: An aqueous solution of aconitine was injected continuously at a rate of 3 μg/kg/minute to Wistar male rats (weighing 220 to 270 g, five rats per group) through a polyethylene cannula inserted into the femoral vein. The test compounds were administered 10 minutes before the administration of aconitine.
The cardiac arrhythmia was determined by electrocardiographic recording of II lead on the limbs and the generation of descending large QRS complex was taken as the ventricular extrasystole and the observation was conducted until ventricular fibrillation was produced.

For data set [4], the system named is Wistar male rats. As to the kind of experiment: Diuretic activity. The class given is in vivo. The following applies: oral, urine collected 5 hours, control = 1.0. As for the experimental part: Wistar male rats (weighing 200 to 250 g, 9 rats per group) fasted 18 hours before the test but freely received drinking water were used. A 0.9% (by weight) physiological saline solution containing the test compound was orally charged through a stomach tube in an amount of 3 ml/100 g of body weight. Immediately thereafter, the rats were placed in a stainless steel cage and the urine was collected during a period of 5 hours after the administration and the urine volume was measured.

In data set [5] the test system is BALB/C type male mice. As to the kind of experiment: Anti-ulcerous activity (restraint water-immersion stress ulcer). The class given is in vivo. As to conditions: for Ulcerous Index: control 54.4 mm; for % Inhibition: inhibition of stress ulcer versus control. As for the experimental part:
BALB/C type male mice weighing about 20 g which fasted for 17 hours before the test were placed in a poly(vinyl chloride) cyclindrical restraint cage having an inside diameter of 35 mm and the mice were immersed in water at 15° C. to the level of xiphisternum of mice for a period of 5 hours. Immediately thereafter, stomach was extracted and 1 ml of 0.5% (by weight) formalin solution was injected into the stomach. After fixing for about 10 minutes, the stomach was incised along the greater curvature thereof and the ulcer generated was obserbed by a stereoscopic microcope.

As to `CCN(CC)CCN[C@H]1c2ccccc2O[C@H](c2ccc(OC)cc2)[C@@H]1O` (relative stereo) [Compound A, 2,3-cis-3,4-trans-4-(2-diethylaminoethylamino)-4'-methoxyflavan-3-ol dimaleate], the LD50 at 168 h came to 1000 mg/kg in data set [1] (iv) and 2000 mg/kg in data set [1] (po). In data set [2], the anti-convulsive activity result is given as “comparable to that of Phenytoin”.
`COc1ccc([C@H]2Oc3ccccc3[C@H](N3CCN(C)CC3)[C@H]2O)cc1` (relative stereo) [Compound B, 2,3-cis-3,4-trans-4'-methoxy-4-(4-methylpiperazin-1-yl)flavan-3-ol dimaleate]: the LD50 at 168 h in data set [1] (iv) was 1000 mg/kg; in data set [1] (po) it was 2000 mg/kg. Further, the “activity for prolonging the time required for producing the cardiac arrhythmia” value in data set [3] is reported as “superior to Ajmaline”. In data set [2], the anti-convulsive activity entry was “comparable to that of Phenytoin”.
For the compound `COc1ccc([C@H]2Oc3ccccc3[C@H](NCCCN3CCOCC3)[C@H]2O)cc1` (relative stereo) [Compound C, 2,3-cis-3,4-trans-4'-methoxy-4-(3-morpholinopropylamino)flavan-3-ol dimaleate], the LD50 at 168 h in data set [1] (iv) was 500 mg/kg; in data set [1] (po), 1500 mg/kg. Besides, the “Volume Ratio of Urine” value in data set [4] (100 mg/kg) came to 2.1. For the same compound, the anti-convulsive activity result in data set [2] is on record as “comparable to that of Phenytoin”.
As for `COc1ccc([C@H]2Oc3ccccc3[C@H](NCCCN(C)C)[C@H]2O)cc1` (relative stereo) [Compound D, 2,3-cis-3,4-trans-4-(3-dimethylaminopropylamino)-4'-methoxyflavan-3-ol], the median lethal dose (LD50) at 168 h amounted to 1000 mg/kg in data set [1] (iv) and 1500 mg/kg in data set [1] (po).
For the compound `O[C@H]1[C@H](c2ccccc2)Oc2ccccc2[C@@H]1N1CCCCC1` (relative stereo) [Compound E, 2,3-trans-3,4-trans-4-piperidinoflavan-3-ol maleate], the values for the median lethal dose (LD50) at 168 h in data set [1] (iv) and in data set [1] (po) were 1000 mg/kg and 1500 mg/kg, respectively. Moreover, the “Volume Ratio of Urine” value in data set [4] (100 mg/kg) is 2.8. In data set [2], the anti-convulsive activity result is listed as “comparable to that of Phenytoin”.
Turning to `CN1CCN([C@H]2c3ccccc3O[C@@H](c3ccccc3)[C@@H]2O)CC1` (relative stereo) [Compound F, 2,3-trans-3,4-trans-4-(4-methylpiperazin-1-yl)flavan-3-ol dimaleate], the LD50 at 168 h in data set [1] (iv) and in data set [1] (po) was 300 mg/kg in each case. Also, the “Volume Ratio of Urine” value in data set [4] (100 mg/kg) turned out to be 2.2.
Regarding `CC(=O)O[C@H]1[C@H](c2ccccc2)Oc2ccccc2[C@@H]1N1CCN(C)CC1` (relative stereo) [Compound G, 2,3-trans-3,4-trans-3-acetoxy-4-(4-methylpiperazin-1-yl)flavan dimaleate], the “Ulcerous Index” value in data set [5] (10 mg/kg) amounted to 37.6 mm; in data set [5] (50 mg/kg), 14.3 mm. The results for the “% Inhibition” value in data set [5] (10 mg/kg) and in data set [5] (50 mg/kg) were 30.8% and 73.7%, respectively. In addition, the results for the LD50 at 168 h in data set [1] (iv) and in data set [1] (po) were 300 mg/kg and 1000 mg/kg, respectively. For the same compound, the “Volume Ratio of Urine” value in data set [4] (50 mg/kg) amounted to 3.0.
`CN(C)CCN[C@H]1c2ccccc2O[C@@H](c2ccccc2)[C@@H]1O` (relative stereo) [Compound H, 2,3-trans-3,4-trans-4-(2-dimethylaminoethylamino)-flavan-3-ol dimaleate]: the 50% lethal dose (LD50) at 168 h in data set [1] (iv) and in data set [1] (po) was 300 mg/kg each time. For the same compound, the “activity for prolonging the time required for producing the cardiac arrhythmia” value in data set [3] is given as “superior to Ajmaline”.
Consider `CN1[C@@H]2CC[C@H]1C[C@@H](OC(=O)C(CO)c1ccccc1)C2` (some centres unmarked) [Atropine Sulfate, reference compound], for which, in data set [5] (10 mg/kg), the “Ulcerous Index” value was 30.7 mm and the “% Inhibition” value came out at 43.8%.
